Test results published in US20220324912A1, “THERAPEUTIC PEPTIDES” (COHBAR, INC., priority 2019, published 2022).
Non-standard residues stand in square brackets, D forms with d. Residues, ends and D or L forms follow the SMILES beside them. No end group written: not given here.

Tests used:
[1] = Stability in Mouse Plasma; type: in vitro ADME; conditions: pooled mouse plasma, 37° C., peptides 100 DM; for remaining at 0.25 h, 100 DM: 15 min; for remaining at 0.5 h, 100 DM: 30 min; for remaining at 1 h, 100 DM: 60 min; for remaining at 2 h, 100 DM: 120 min; for remaining at 3 h, 100 DM: 180 min
Description: Peptides (100 DM) were incubated in pooled mouse plasma at 37° C. and samples were removed and immediately analyzed for the concentration of intact peptide by LC/MS/MS over the course of 3 hours. The percent of peptide remaining in plasma at each time point was calculated relative to the initial peak area (Table 9).

3T3-L1 adipocytes = test: Free Fatty Acid Levels in 3T3-L1 Adipocytes (Example 4, 25 μM); type: cell-based, mouse; conditions: for Free fatty acid levels, Percent of Control Value (percent isoproterenol control): peptides 25 μM, 20-22 hours then 3 hours with isoproterenol 1 nM, 3T3-L1 adipocytes
Description: Following 12-15 days' differentiation, test peptides were added to a final concentration of 25 μM and incubated for 20-22 hours in Adipocyte Maintenance Medium. After 20-22 hours, isoproterenol (1 nM) was added to all wells except untreated controls and test peptides were replenished. Cells were incubated for a further 3 hours in Assay Buffer (Zen-Bio). Free fatty acid concentrations in the media were determined using a Free Fatty Acid Assay Kit (Zen-Bio) according to the manufacturer's instructions using a plate reader (540 nm). Absorbance values were corrected for untreated background and expressed relative to isoproterenol treated cells. Treatment with isoproterenol (1 nM) alone was used as the free fatty acid level stimulatory control. The relative standard deviation of the isoproterenol control was <10%. […] Free fatty acid levels for insulin (100 nM) treatment were <5% of the isoproterenol control value.

3T3-L1 mouse adipocytes = test: Free Fatty Acid Levels in 3T3-L1 Mouse Adipocytes (Example 12, 10 μM); type: cell-based
Description: The effect of the peptides on fatty acid metabolism can be assessed using an assay of free fatty acid levels in cultured cells such as mouse adipocytes. Peptides were initially prepared as 10 mM stock in DMSO, diluted to 1 mM in H2O, and used at a final concentration of 10 μM (0.1% DMSO). […] After 20-22 hours, 1 nM isoproterenol was added to all wells except untreated controls and test peptides were replenished. Insulin at 100 nM was added to control wells. […] Free fatty acid concentrations in the media were determined using a Free Fatty Acid Assay kit (Zen-Bio) according to the manufacturer's instructions using a Cytation 3 plate reader at 540 nm (BioTek, Winooski, Vt.). Absorbance values were corrected for untreated background and expressed relative to isoproterenol treated cells. Treatment with isoproterenol (1 nM) alone was used as the free fatty acid level stimulatory control. The relative standard deviation of the isoproterenol control was <10%. […] Free fatty acid levels for insulin (100 nM) treatment were <5% of the isoproterenol control value.

DIO mice [2] = test: Metabolic parameters in DIO mice, twice daily intraperitoneal, 10 days (Example 16); type: in vivo, mouse; conditions: 5 mg/kg, male DIO mice
Description: Male C57BL/6 mice were maintained on a high fat diet for 18 weeks to develop diet induced obesity. Animals were randomized to treatment groups based on blood glucose levels and body weight. The peptides of the invention were administered to groups of male DIO mice twice daily by intraperitoneal injection at a dose of 5 mg/kg/dose for 10 days (N=8 animals per treatment group). An additional group of male DIO mice (n=8) received vehicle (water) alone administered twice daily by intraperitoneal injection. Body weight, blood glucose levels and food intake were monitored. Body mass distribution (fat vs lean) was determined by quantitative whole body NMR prior to dosing and at the end of dosing.

C2C12 cells [3] = test: Cell Proliferation in C2C12 Cells (Cyquant DNA dye); type: cell-based, mouse
Description: The effect of the peptides on cell proliferation was assessed using a DNA dye binding assay in cultured cells such as mouse myoblast cells. Peptides were initially prepared as 10 mM stock in DMSO, diluted to 1 mM in H2O, and added at a final concentration of 10 μM (0.1% DMSO). Lovastatin was used as a growth arrest control at final concentration of […]. […] C2C12 cells were grown in DMEM supplemented with 20% FBS with 100 IU/ml penicillin and 100 μg/ml streptomycin. […] C2C12 cells were seeded at 800 cells per well on 96-well plates. […] Cell proliferation was determined using Cyquant Direct Nucleic Acid Stain (Thermo Fisher Scientific, Waltham, Mass.) according to the manufacturer's instructions. Fluorescence for each sample well on the plate was measured using a Cytation 3 plate reader at Ex/Em=495/535 nm (BioTek, Winooski, Vt.). Activity was calculated relative to 0.1% DMSO untreated control. The relative standard deviation for the lovastatin control was <27%. The cell proliferation for the lovastatin control was <25% of the value for untreated control.

C2C12 cells [4] = test: Cellular ROS Levels Induced by TBHP in C2C12 Cells (DCFDA); type: cell-based, mouse
Description: The protective or synergistic effect of the peptides on cellular levels of reactive oxygen species (ROS) induced by oxidative stress can be assessed using an assay of ROS in cultured cells such as mouse myoblasts exposed to a suitable oxidative stress. Peptides were initially prepared as 10 mM stock in DMSO, diluted to 1 mM in H2O, and added at a final concentration of 10 μM (0.1% DMSO). […] TBHP was used at final concentration of 100 μM. Sulforaphane at final concentration of 10 µM was used as a protective control against TBHP induced ROS production. […] C2C12 cells were grown in DMEM supplemented with 20% FBS with 100 IU/ml penicillin and 100 μg/ml streptomycin. […] C2C12 cells were seeded at 7,500 cells per well on 96-well plates. […] After 18-20 hours of incubation the cells were loaded with DCFDA for 45 min. TBHP at 100 μM was then added to the appropriate wells for 1 hour. ROS activity was determined using a DCFDA Cellular ROS Detection Assay kit (Abcam, Cambridge, Mass.) according to the manufacturer's instructions. Fluorescence in each sample well on the plate was measured using a Cytation 3 plate reader at Ex/Em=485/535 nm (BioTek, Winooski, Vt.). Activity was calculated relative to TBHP control. The relative standard deviation of the sulforaphane control was <20%. The ROS level produced by the sulforaphane control in the presence of TBHP was 52% of the TBHP control.

DIO mice [5] = test: Effects in Diet Induced Obese (DIO) mice, once daily subcutaneous, 10 days (Example 9); type: in vivo, mouse; conditions: for Difference from Vehicle Control: Decrease from Baseline in Blood Glucose / Difference from Vehicle Control: Decrease from Baseline in Body Weight / Difference from Vehicle Control: Decrease from Baseline in Fat Mass: male DIO mice
Description: C57BL/6 mice were maintained on a high fat diet for 18 weeks to develop diet induced obesity. Animals were randomized to treatment groups based on blood glucose levels and body weight. The peptide of SEQ ID NO: 9 was administered to two groups of male DIO mice once daily by subcutaneous injection at doses of 5.0 or 15 mg/kg/dose for 10 days (N=8 animals per treatment group). An additional group of male DIO mice (n=8) received vehicle (water) alone. Body weight, blood glucose levels and food intake were monitored. Body mass distribution (fat vs lean) was determined by quantitative whole body NMR prior to dosing and at the end of dosing.

## CC[C@H](C)[C@H](NC(=O)[C@@H](C)NC(=O)[C@H](CO)NC(=O)CNC(=O)[C@@H]1CCCN1C(=O)[C@H](CC(C)C)NC(=O)[C@@H](N)CCCNC(=N)N)C(=O)N[C@@H](CC(C)C)C(=O)N[C@H](C(=O)N[C@@H](CC(N)=O)C(=O)N1CCC[C@H]1C(=O)N[C@H](C(=O)N[C@@H](CC(C)C)C(=O)NCC(=O)N[C@@H](Cc1c[nH]c2ccccc12)C(=O)N[C@H](C(=O)O)C(C)C)C(C)C)[C@@H](C)O [compound 10] (H-RLPGS[dA]ILTNPVLGWV-OH)
[1]
  % Remaining at 0 min: 100%
  remaining at 0.25 h, 100 DM: 76.5%
  remaining at 0.5 h, 100 DM: 58.1%
  remaining at 1 h, 100 DM: 44.4%
  remaining at 2 h, 100 DM: 18.1%
  remaining at 3 h, 100 DM: 8.9%

## insulin [reference compound]
3T3-L1 adipocytes; insulin 100 nM, Example 4
  Free fatty acid levels, % of isoproterenol control value: < 5%
3T3-L1 mouse adipocytes; insulin 100 nM, Example 12
  Free fatty acid levels, % of isoproterenol control value: < 5%

## 32 (W[dA]IDEKAVEASGE) [compound 32]
3T3-L1 adipocytes
  Free fatty acid levels, Percent of Control Value (percent isoproterenol control): 102%

## 28 (VKAPLSEGGHPWGREG) [compound 28]
3T3-L1 adipocytes
  Free fatty acid levels, Percent of Control Value (percent isoproterenol control): 135%

## 26 (VVKGPLSEGGHPWGREGI) [compound 26]
3T3-L1 adipocytes
  Free fatty acid levels, Percent of Control Value (percent isoproterenol control): 129%

## CC[C@H](C)[C@H](NC(=O)[C@H](C)NC(=O)[C@H](CO)NC(=O)CNC(=O)[C@@H]1CCCN1C(=O)[C@H](CC(C)C)NC(=O)[C@@H](N)CCCNC(=N)N)C(=O)N[C@@H](CC(C)C)C(=O)N[C@H](C(=O)N[C@@H](CC(N)=O)C(=O)N1CCC[C@H]1C(=O)N[C@H](C(=O)N[C@@H](CC(C)C)C(=O)NCC(=O)N[C@@H](Cc1c[nH]c2ccccc12)C(=O)N[C@H](C(=O)N[C@@H](Cc1c[nH]c2ccccc12)C(=O)N[C@H](C(=O)O)C(C)C)C(C)C)C(C)C)[C@@H](C)O [compound 8] (H-RLPGSAILTNPVLGWVWV-OH)
[1]
  % Remaining at 0 min: 100%
  remaining at 0.25 h, 100 DM: 84.9%
  remaining at 0.5 h, 100 DM: 82.7%
  remaining at 1 h, 100 DM: 70.9%
  remaining at 2 h, 100 DM: 58.7%
  remaining at 3 h, 100 DM: 45%

## 27 (VVKGPLSEGGHPWGREG) [compound 27]
3T3-L1 adipocytes
  Free fatty acid levels, Percent of Control Value (percent isoproterenol control): 89%

## 33 (W[dA]IDEKAVE[dA]SGE) [compound 33]
3T3-L1 adipocytes
  Free fatty acid levels, Percent of Control Value (percent isoproterenol control): 92%

## 23 ([dA]FQKTHNLNQHNHPQ[dA]N) [compound 23]
3T3-L1 adipocytes
  Free fatty acid levels, Percent of Control Value (percent isoproterenol control): 114%

## 4 (LAVRRTARAI) [compound 4]
3T3-L1 adipocytes
  Free fatty acid levels, Percent of Control Value (percent isoproterenol control): 102%

## 14 (MRLPGPAILTNPVLGWVWV) [compound 14]
DIO mice [2]
  Difference from Vehicle Control: Decrease from Baseline in Blood Glucose: -6.12 mg/dL
  Difference from Vehicle Control: Decrease from Baseline in Body Weight: −2.48%
  Difference from Vehicle Control: Decrease from Baseline in Fat Mass: -0.93 g
C2C12 cells [3]; peptides 10 μM, 72 hours with readdition every 24 hours, relative to 0.1% DMSO control
  Cell proliferation, Percent of Control: 93.2%
3T3-L1 mouse adipocytes; peptides 10 μM, 20-22 hours then 3 hours with isoproterenol 1 nM, 3T3-L1 mouse adipocytes
  Free fatty acid levels, Percent of Isoproterenol Control Activity: 80.8%
C2C12 cells [4]; peptides 10 μM, 18-20 hours, then TBHP 100 μM 1 hour, relative to TBHP control
  Cellular ROS levels induced by TBHP, Percent of Control: 106.0%

## RLPGS(dA)ILTNPVLGWVWV (RLPGS[dA]ILTNPVLGWVWV) [SEQ ID NO: 9]
DIO mice [5]; 5.0 mg/kg/dose
  Difference from Vehicle Control: Decrease from Baseline in Blood Glucose: 7.0 mg/dL
  Difference from Vehicle Control: Decrease from Baseline in Body Weight: 1.79%
  Difference from Vehicle Control: Decrease from Baseline in Fat Mass: 0.56 g
DIO mice [5]; 15.0 mg/kg/dose
  Difference from Vehicle Control: Decrease from Baseline in Blood Glucose: 18.0 mg/dL
  Difference from Vehicle Control: Decrease from Baseline in Body Weight: 1.96%
  Difference from Vehicle Control: Decrease from Baseline in Fat Mass: 0.86 g
DIO mice [5]; 5.0 or 15 mg/kg/dose
  Body weight loss compared to vehicle (in words): greater body weight loss
  Decrease in fat mass from baseline compared to vehicle (in words): greater decrease in fat mass
  Reduction in blood glucose compared to vehicle (in words): greater reduction in blood glucose

## 21 (TFQKTHNLNQHNHPQPNY) [compound 21]
3T3-L1 adipocytes
  Free fatty acid levels, Percent of Control Value (percent isoproterenol control): 91%

## C[S+]([O-])CCCCN=C=S (stereo not shown) [sulforaphane, reference compound]
C2C12 cells [4]; sulforaphane 10 µM
  ROS level in the presence of TBHP, % of the TBHP control: 52%

## CC[C@H](C)C(=O)O[C@H]1C[C@@H](C)C=C2C=C[C@H](C)[C@H](CC[C@@H]3C[C@@H](O)CC(=O)O3)[C@H]21 [lovastatin, reference compound]
C2C12 cells [3]; lovastatin 10 μM, 72 hours
  Cell proliferation, % of the value for untreated control: < 25%

## CC[C@H](C)[C@H](NC(=O)[C@@H](C)NC(=O)[C@H](CO)NC(=O)CNC(=O)[C@@H]1CCCN1C(=O)[C@H](CC(C)C)NC(=O)[C@@H](N)CCCNC(=N)N)C(=O)N[C@@H](CC(C)C)C(=O)N[C@H](C(=O)N[C@@H](CC(N)=O)C(=O)N1CCC[C@H]1C(=O)N[C@H](C(=O)N[C@@H](CC(C)C)C(=O)NCC(=O)N[C@@H](Cc1c[nH]c2ccccc12)C(=O)N[C@H](C(=O)N[C@@H](Cc1c[nH]c2ccccc12)C(=O)N[C@H](C(=O)O)C(C)C)C(C)C)C(C)C)[C@@H](C)O [compound 9] (H-RLPGS[dA]ILTNPVLGWVWV-OH)
[1]
  % Remaining at 0 min: 100%
  remaining at 0.25 h, 100 DM: 90.5%
  remaining at 0.5 h, 100 DM: 81%
  remaining at 1 h, 100 DM: 72%
  remaining at 2 h, 100 DM: 56.5%
  remaining at 3 h, 100 DM: 46.6%

## 5 (LAVRRTARA[dA]) [compound 5]
3T3-L1 adipocytes
  Free fatty acid levels, Percent of Control Value (percent isoproterenol control): 109%

## 31 (WAIDEKAVEASGE) [compound 31]
3T3-L1 adipocytes
  Free fatty acid levels, Percent of Control Value (percent isoproterenol control): 115%

## 3 (LAVRRTARAIG) [compound 3]
3T3-L1 adipocytes
  Free fatty acid levels, Percent of Control Value (percent isoproterenol control): 91%

## 22 ([dA]FQKTHNLNQHNHPQPNY) [compound 22]
3T3-L1 adipocytes
  Free fatty acid levels, Percent of Control Value (percent isoproterenol control): 135%
